Here are results for three compounds from patent US20180015051A1, “MODULATORS OF ALPHA-DICARBONYL DETOXIFICATION AND THEIR USE FOR THE TREATMENT OF DIABETIC PATHOLOGIES” (Buck Institute for Research on Aging, priority 2016, published 2018).

The subject of one data set is C. elegans. Description: Lifespan assay (survival curves). The format is in vivo, Caenorhabditis elegans. The following applies: for Lifespan / early mortality (survival curves): glod-4 mutant animals, PA, LA, or UMP (20 pM) vs EtOH control. The protocol:
Life span assays were performed in Thermo Scientific Precision incubators at 20° C. After alkaline hypochlorite treatment, synchronized L1 animals were either placed onto NGM plates seeded with 5× concentrated E. coli OP50-1 (cultured on Lysogeny Broth/LB overnight) or on RNAi plates supplemented with 20×HT1115 RNAi bacteria. Post-L4 stage of development, all lifespan assays were performed using FUdR (5-fluoro-2 deoxyuridine) plates to inhibit development and growth of progeny. Every two days, animals were transferred on to new 60 mm NGM or RNAi plates freshly seeded with OP50-1 or HT1115 bacteria (with or without drug), respectively. 90-120 animals were considered for each lifespan experiment. Animal viability was assessed visually or with gentle prodding on the head. Animals were censored in the event of internal hatching of the larvae, body rupture, or crawling of larvae from the plates.

The subject of another data set is SKN-1/Nrf2. As to the kind of experiment: SKN-1 activation assay (GFP reporters for SKN-1, gst-4, gcs-1; qPCR). The format is in vivo, Caenorhabditis elegans. The following applies: for Expression of gst-4 (GFP foci) under trpa-1 knockdown: glod-4;gst-4p::gfp animals, PA or LA (20 pM); for SKN-1 activation (GFP foci in gst-4p::gfp): gst-4p::gfp animals on EV or glod-4 RNAi, PA, LA, or UMP (20 pM). How it is done:
Adult animals were examined for SKN-1/Nrf2 activation using GFP reporters for both SKN-1 and SKN-1 target genes: gst-4 and gcs-1. For exogenous MGO and drug assays, age-synchronized GFP reporter strains were subject to control and treatment conditions for a period of 4-6 hours before microscopy. For RNAi-induced activation studies, GFP reporter strains were fed on HT1115 bacteria expressing empty vector pL4440 or RNAi gene from L1 stage. Synchronized day 1 adult animals were then subjected to microscopic examination. Activation of SKN-1 using SKN-1 fusion reporter was determined as described earlier (An et al. (2003) Genes & Dev. 17: 1882-1893; Onken and Driscoll (2010) PloS One, 5: e8758). Scoring for downstream SKN-1 targets carrying GFP reporter for gcs-1 promoter was performed based on a previous study (Wang et al. (2010) PLoS Genetics, doi. org/10.1371/journal.pgen.1001048) and categorized as follows: ‘high’ for strong GFP signal throughout the intestine, ‘medium’ for GFP signal in the anterior or posterior section of the intestine and ‘low’ for weak or no signal. For animals with gst-4 promoters carrying GFP reporters number of GST-4 positive foci was counted under different conditions as described previously (Fensgardet al. (2010) Aging, 2: 133-159). Quantification of acquired images was done using the Image J™ software (//imagej.nih.gov/ij/).
Total RNA was extracted from nearly 100 age-synchronized adult animals picked and collected in 20 pl of M9 buffer using TRIzol reagent (Life Technologies, CA). Subsequently, 1 pg total RNA was used as template for cDNA synthesis. cDNA was synthesized using the ISCRIPT™ cDNA synthesis kit (Bio-Rad, CA) following manufacturer's protocol. qRT-PCR was carried out using the SensiFAST SYBR No-ROX kit (Bioline, MA) in a LightCycler 480 Real-Time PCR system (Roche Diagnostics Corp., IN). Quantification was performed using the comparative AACt method and normalization for internal reference was done using actin gene act-1.
For orientation: In qPCR the cycle at which signal appears reflects the starting amount.

The target of another data set is T1, TRPA-1 (Caenorhabditis elegans, UniProt Q18297).
T1 construct: TQ3056: XuIs180[plfe2b::GCaMP1.3+plfe-2b::dsred];N2; endogenous in cells; host or cells: whole C. elegans animals, N2 background with intestinal GCaMP1.3 (strain TQ3056)
T1 sequence (Q18297 1-1211): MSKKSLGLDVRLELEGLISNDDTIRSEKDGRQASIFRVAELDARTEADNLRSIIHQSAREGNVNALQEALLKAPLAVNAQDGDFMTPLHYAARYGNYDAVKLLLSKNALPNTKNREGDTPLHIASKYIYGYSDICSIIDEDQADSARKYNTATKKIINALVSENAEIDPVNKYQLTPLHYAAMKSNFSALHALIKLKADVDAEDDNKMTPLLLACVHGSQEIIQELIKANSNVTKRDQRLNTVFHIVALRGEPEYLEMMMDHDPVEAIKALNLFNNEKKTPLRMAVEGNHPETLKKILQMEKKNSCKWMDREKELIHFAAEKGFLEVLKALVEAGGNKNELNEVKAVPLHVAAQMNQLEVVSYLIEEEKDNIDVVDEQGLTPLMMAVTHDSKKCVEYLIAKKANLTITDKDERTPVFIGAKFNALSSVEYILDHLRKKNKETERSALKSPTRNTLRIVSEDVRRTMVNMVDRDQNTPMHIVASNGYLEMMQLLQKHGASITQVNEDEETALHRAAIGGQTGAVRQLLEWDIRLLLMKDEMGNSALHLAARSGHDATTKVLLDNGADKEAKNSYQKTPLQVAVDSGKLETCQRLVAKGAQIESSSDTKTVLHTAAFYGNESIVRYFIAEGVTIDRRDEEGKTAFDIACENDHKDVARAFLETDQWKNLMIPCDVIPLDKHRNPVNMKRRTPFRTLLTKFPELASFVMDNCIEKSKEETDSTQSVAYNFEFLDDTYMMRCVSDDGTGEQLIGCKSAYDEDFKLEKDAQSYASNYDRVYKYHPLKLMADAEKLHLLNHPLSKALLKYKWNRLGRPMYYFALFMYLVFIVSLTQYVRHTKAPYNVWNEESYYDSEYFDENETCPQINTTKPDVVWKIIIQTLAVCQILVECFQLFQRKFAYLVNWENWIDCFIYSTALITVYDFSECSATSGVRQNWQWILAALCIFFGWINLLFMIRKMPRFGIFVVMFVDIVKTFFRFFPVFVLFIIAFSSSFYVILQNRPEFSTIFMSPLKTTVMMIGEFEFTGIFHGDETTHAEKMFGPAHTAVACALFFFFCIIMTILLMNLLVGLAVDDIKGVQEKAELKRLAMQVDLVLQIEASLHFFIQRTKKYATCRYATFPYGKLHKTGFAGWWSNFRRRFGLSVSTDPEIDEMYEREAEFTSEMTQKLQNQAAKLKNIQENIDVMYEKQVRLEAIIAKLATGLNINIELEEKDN
Description: Ca2+ flux-based channel study in C. elegans (intestinal GCaMP1.3), wild-type TRPA-1. The following applies: for Ca2+ flux (percentage change in peak GCaMP1.3 fluorescence intensity): wild-type TRPA-1, PA or LA (20 pM). In kind it is in vivo. The protocol:
(§1) Ca^2+ flux was measured using an upright Olympus compound microscope (BX51) under a 40× objective. Real time sequential G-CaMP1.3 fluorescent images were captured using Hamamatsu Ocra-ER digital CCD camera at a frame rate of 10 frames per second and for a span of 300 frames. Acquired images were analyzed for further intensity measurements using HC Image software v. 1.1.3.0 (Hamamatsu Corp., NJ). Percentage change in fluorescent peak intensity was estimated using the intensity values generated real time by the program.
A general note: Calcium assays in cells follow changes in intracellular calcium, usually with a dye or a luminescent sensor.

In data set [1] the target is T2, TRPA-1^E1018A (Ca^2+ impermeable) mutant channel (Caenorhabditis elegans, UniProt Q18297, E1018A).
T2 construct: expressed in transfected cells; host or cells: transgenic C. elegans (strain TQ2772), ges-1 promoter (intestine), trpa-1(ok999) background, with GCaMP1.3
As to the kind of experiment: Ca2+ flux-based channel study in C. elegans (intestinal GCaMP1.3), TRPA-1^E1018A mutant channel. The format is in vivo. The settings on record: Ca^+2-impermeable TRPA-1^E1018A channel; for Ca2+ flux (percentage change in peak GCaMP1.3 fluorescence intensity): PA or LA (20 pM). How it is done: as §1

T2 sequence (Q18297 whole entry E1018A): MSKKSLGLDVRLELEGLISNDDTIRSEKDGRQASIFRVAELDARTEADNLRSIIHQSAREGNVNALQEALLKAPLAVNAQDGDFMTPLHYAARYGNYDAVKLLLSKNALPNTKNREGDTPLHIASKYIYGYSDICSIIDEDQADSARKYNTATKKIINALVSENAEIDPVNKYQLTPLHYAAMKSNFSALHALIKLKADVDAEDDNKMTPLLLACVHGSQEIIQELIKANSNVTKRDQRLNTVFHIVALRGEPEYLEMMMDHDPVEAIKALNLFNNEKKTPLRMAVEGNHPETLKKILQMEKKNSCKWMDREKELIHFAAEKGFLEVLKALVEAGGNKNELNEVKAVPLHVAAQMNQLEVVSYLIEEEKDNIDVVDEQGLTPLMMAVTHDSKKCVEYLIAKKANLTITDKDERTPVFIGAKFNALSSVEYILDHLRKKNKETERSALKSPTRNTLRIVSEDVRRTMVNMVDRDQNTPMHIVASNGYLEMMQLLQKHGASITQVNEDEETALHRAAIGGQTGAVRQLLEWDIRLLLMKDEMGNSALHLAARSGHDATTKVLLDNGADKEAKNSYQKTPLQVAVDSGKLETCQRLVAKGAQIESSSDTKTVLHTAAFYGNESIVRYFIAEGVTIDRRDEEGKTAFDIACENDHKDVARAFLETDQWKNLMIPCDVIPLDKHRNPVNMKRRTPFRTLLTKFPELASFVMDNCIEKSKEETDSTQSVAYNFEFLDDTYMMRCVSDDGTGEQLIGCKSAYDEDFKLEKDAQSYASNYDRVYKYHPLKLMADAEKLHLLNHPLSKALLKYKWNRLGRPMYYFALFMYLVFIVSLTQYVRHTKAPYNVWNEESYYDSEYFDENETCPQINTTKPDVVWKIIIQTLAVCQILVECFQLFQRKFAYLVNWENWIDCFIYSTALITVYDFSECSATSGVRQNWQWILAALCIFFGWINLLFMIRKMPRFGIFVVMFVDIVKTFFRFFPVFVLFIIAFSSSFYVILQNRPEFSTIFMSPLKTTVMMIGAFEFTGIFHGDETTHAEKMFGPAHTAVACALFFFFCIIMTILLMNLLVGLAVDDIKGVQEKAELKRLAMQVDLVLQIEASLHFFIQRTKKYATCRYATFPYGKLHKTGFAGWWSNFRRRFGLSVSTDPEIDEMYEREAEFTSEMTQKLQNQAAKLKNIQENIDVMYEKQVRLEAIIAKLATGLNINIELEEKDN

Take `O=C(O)CCCCC1CCSS1` (stereo not shown) [LA, a-lipoic acid]: the “Lifespan / early mortality (survival curves)” value in the data set on C. elegans is listed as “performed similar to PA”. Besides, the “Expression of gst-4 (GFP foci) under trpa-1 knockdown” value with SKN-1/Nrf2 (trpa-1 RNAi) is listed as “significantly reduced to wild-type levels”. The “SKN-1 activation (GFP foci in gst-4p::gfp)” value with SKN-1/Nrf2 is reported as “SKN-1 activation was observed”. The entries for the “Ca2+ flux (percentage change in peak GCaMP1.3 fluorescence intensity)” value (on TRPA-1; in data set [1]) were “robust Ca+^2 flux” and “significantly reduced”, respectively.

As for `C[C@]1(C(=O)O)CCC[C@]2(C)c3cc(O)ccc3CC[C@@H]12` [PA, podocarpic acid], the “Lifespan / early mortality (survival curves)” value with C. elegans is given as “able to prevent”. The “Expression of gst-4 (GFP foci) under trpa-1 knockdown” value with SKN-1/Nrf2 (trpa-1 RNAi) is “significantly reduced to wild-type levels”. The “SKN-1 activation (GFP foci in gst-4p::gfp)” value in the data set with SKN-1/Nrf2 was “activates SKN-1”. The entries for the “Ca2+ flux (percentage change in peak GCaMP1.3 fluorescence intensity)” value (on TRPA-1; in data set [1]) were “robust Ca+^2 flux” and “significantly reduced”, respectively.

For `CC(=O)C=O` [MGO, methylglyoxal], in the data set with C. elegans (N2 animals, 7 mM MGO vs water), the “Lifespan (survival curves)” value is on record as “early mortality”. The “SKN-1 nuclear localization (SKN-1::GFP)” value in the data set on SKN-1/Nrf2 (7 mM MGO vs water) is on record as “undergo nuclear localization”. For the same compound, the “Expression of SKN-1 reporters gst-4 and gcs-1 on trpa-1 knockdown” value in the data set with SKN-1/Nrf2 (MGO-treated wild-type animals, 7 mM MGO, trpa-1 RNAi) is “significantly reduced”. Further, the “SKN-1/Nrf2 activation (gst-4 and gcs-1, GFP reporter and RT-PCR)” value in the data set with SKN-1/Nrf2 (exogenous MGO treatment, 7 mM vs water) is “significant SKN-1/Nrf2 activation”. Moreover, the “Ca2+ response (G-CaMP1.3 sensor)” value was “robust Ca^2+ response” on TRPA-1 (functional (wild-type) TRPA-1 channel, 7 mM MGO vs water) and “basal responses” in data set [1] (7 mM MGO).
